We go through 37 compounds from patent US20260285857A1, “BICYCLIC AND HETEROCYCLIC AMIDE COMPOUNDS” (priority 2024, published 2026).

The structures appear in SMILES notation.

This experiment relates to immunoglobulin light chain protein WIL-FL T46L. In words: Differential scanning fluorimetry (thermal shift) assay. To be noted: temperature shift [Tm]compound-[Tm]vehicle, recombinant WIL-FL T46L. Format: binding. A general note: In DSF a fluorescence change marks the thermal transition of the protein.

Regarding `Cc1cc(N2CCC(C)(c3ccccc3Cl)C2)cn2nc(C(=O)N3CC[C@@]4(CCN(c5cccc(C(=O)O)n5)C4)C3)nc12` (stereo partly shown) [Compound 417], the DSF entry (Table A) is given as “***** (>2.5° C.=*****)”.

With `Cc1cc(N2CC[C@](C)(c3cccc(Cl)c3)C2)cn2nc(C(=O)N3C[C@@H]4CN(c5cccc(C(=O)O)n5)C[C@@H]4C3)nc12` [Compound 418], the DSF entry (Table A) was “***** (>2.5° C.=*****)”.

On to `Cc1cc(N2CC[C@](C)(c3ccc(Cl)cc3)C2)cn2nc(C(=O)N3C[C@@H]4CN(c5cccc(C(=O)O)n5)C[C@@H]4C3)nc12` [Compound 420], for which the DSF entry (Table A) was “***** (>2.5° C.=*****)”.

As to `Cc1cc(N2CCC(C)(c3ccc(F)c(F)c3)C2)cn2nc(C(=O)N3C[C@@H]4CN(c5cccc(C(=O)O)n5)C[C@@H]4C3)nc12` (stereo partly shown) [Compound 421], the DSF entry (Table A) is recorded as “***** (>2.5° C.=*****)”.

For the compound `Cc1cc(N2CCC(C)(c3ccc(F)cc3)C2)cn2nc(C(=O)NC3CCN(c4ccnc(C(=O)O)c4)CC3)nc12` (stereo not shown) [Compound 422], the DSF result (Table A) is on record as “***** (>2.5° C.=*****)”.

For the compound `Cc1cc(N2CCC(C)(c3ccc(F)cn3)C2)cn2nc(C(=O)N3CC[C@@]4(CCN(c5cccc(C(=O)O)n5)C4)C3)nc12` (stereo partly shown) [Compound 423], where the note is “Table A”, the DSF entry is reported as “*** (>1-1.5° C.=***)”.

`Cc1cc(N2CCC(C)(c3cncc(F)c3)C2)cn2nc(C(=O)N3CC[C@@]4(CCN(c5cccc(C(=O)O)n5)C4)C3)nc12` (stereo partly shown) [Compound 424]: the DSF result (Table A) is reported as “**** (>1.5-2.5° C.=****)”.

Turning to `CNC(=O)c1nc2c(C)cc(N3CCC(C)(c4ccccc4F)C3)cn2n1` (stereo not shown) [Compound 425], the DSF result (Table A) was “***** (>2.5° C.=*****)”.

As for `Cc1cc(N2CCC(C)(c3ccccc3F)C2)cn2nc(C(=O)N3CC[C@@]4(CCN(c5cccc(C(=O)O)n5)C4)C3)nc12` (stereo partly shown) [Compound 426], the DSF entry (Table A) was “***** (>2.5° C.=*****)”.

As to `Cc1cc(N2CCC(C)(c3cccnc3)C2)cn2nc(C(=O)N3CC[C@@]4(CCN(c5cccc(C(=O)O)n5)C4)C3)nc12` (stereo partly shown) [Compound 427], the DSF entry (Table A) is “*** (>1-1.5° C.=***)”.

Regarding `Cc1cc(N2CC[C@@](C)(c3ccc(F)cc3)C2)cn2nc(C(=O)N3CC[C@@]4(CCN(c5cccc(C(=O)O)n5)C4)C3)nc12` [Compound 428], the DSF entry (Table A) is on record as “***** (>2.5° C.=*****)”.

Consider `Cc1cc(N2CC[C@](C)(c3ccc(F)cc3)C2)cn2nc(C(=O)N3CC[C@@]4(CCN(c5cccc(C(=O)O)n5)C4)C3)nc12` [Compound 429], for which the DSF entry (Table A) is given as “***** (>2.5° C.=*****)”.

Turning to `Cc1cc(N2CCC(C)(C#N)C2)cn2nc(C(=O)N3CC4CN(c5cccc(C(=O)O)n5)CC4C3)nc12` (stereo not shown) [Compound 430], the DSF entry (Table A) is “* (0-0.5° C.=*)”.

Regarding `Cc1cc(N2CC3(c4ccccc4)CC2C3)cn2nc(C(=O)N3CC4CN(c5cccc(C(=O)O)n5)CC4C3)nc12` (stereo not shown) [Compound 431], the DSF result (Table A) is “* (0-0.5° C.=*)”.

`Cc1cc(N2CCOC(C)(c3ccccc3)C2)cn2nc(C(=O)N3CC4CN(c5cccc(C(=O)O)n5)CC4C3)nc12` (stereo not shown) [Compound 432]: the DSF result (Table A) was “* (0-0.5° C.=*)”.

Consider `CNC(=O)c1cc2c(C)cc(N3CC[C@](C)(c4ccccc4)C3)cn2n1` [Compound 433], for which the DSF result (Table A) is “***** (>2.5° C.=*****)”.

Turning to `CNC(=O)c1cn2cc(N3CC[C@](C)(c4ccccc4)C3)cc(C)c2n1` [Compound 434], the DSF entry (Table A) is on record as “***** (>2.5° C.=*****)”.

As for `CNC(=O)c1nc2c(C)cc(N3CC[C@@](C)(c4ccccc4)C3)cc2o1` [Compound 435], the DSF entry (Table A) is reported as “***** (>2.5° C.=*****)”.

Turning to `Cc1n[nH]c(C2C3COC2(c2nc4c(C)cc(OC[C@H](C)c5ccccc5)cn4n2)C3)n1` (stereo partly shown) [Compound 436], the DSF entry (Table A) is on record as “***** (>2.5° C.=*****)”.

`Cc1cc(OC[C@H](C)c2ccccc2)cn2nc(C34CC(CO3)C4C(N)=O)nc12` (stereo partly shown) [Compound 437]: the DSF result (Table A) is recorded as “*** (>1-1.5° C.=***)”.

`Cc1cc(N2CC[C@](C)(c3ccccc3)C2)cn2nc(C34CC(CO3)C4c3nc(N)n[nH]3)nc12` (stereo partly drawn) [Compound 438, 5-[1-[8-methyl-6-[(3R)-3-methyl-3-phenyl-pyrrolidin-1-yl]-[1,2,4]triazolo[1,5-a]pyridine-2-yl]-2-oxabicyclo[2.1.1]hexan-5-yl]-1H-1,2,4-triazol-3-amine]: the DSF result (Table A) is given as “***** (>2.5° C.=*****)”.

For the compound `Cc1cc(N2CC[C@](C)(c3ccccc3)C2)cn2nc(C(=O)N3CC4(C(=O)O)CC3C4)nc12` [Compound 439], under “Table A”, the DSF result is on record as “***** (>2.5° C.=*****)”.

For `Cc1cc(N2CC[C@](C)(c3ccccc3)C2)cn2nc(C34CC(C(=O)NC(C)(C)C(=O)O)(CO3)C4)nc12` [Compound 440, (R)-2-methyl-2-(1-(8-methyl-6-(3-methyl-3-phenylpyrrolidin-1-yl)-[1,2,4]triazolo[1,5-a]pyridin-2-yl)-2-oxabicyclo[2.1.1]hexane-4-carboxamido)propanoic acid], the DSF result (Table B) is given as “***** (>2.5° C.=*****)”.

On to `Cc1cc(N2CC[C@](C)(c3ccccc3)C2)cn2nc(C34CC(C(=O)N[C@@H]5COC[C@H]5O)(CO3)C4)nc12` [Compound 441], for which, for the setting “Table B”, the DSF entry was “***** (>2.5° C.=*****)”.

For the compound `Cc1cc(N2CC[C@](C)(c3ccccc3)C2)cn2nc(C34CC(C(=O)N[C@@H](C)CO)(CO3)C4)nc12` [Compound 442], where the note is “Table B”, the DSF result was “***** (>2.5° C.=*****)”.

For the compound `Cc1cc(N2CC[C@](C)(c3ccccc3)C2)cn2nc(C34CC(C(=O)NC(C)C)(CO3)C4)nc12` [Compound 443], the DSF entry (Table B) is “***** (>2.5° C.=*****)”.

With `Cc1cc(N2CC[C@](C)(c3ccccc3)C2)cn2nc(C34CC(C(=O)NCC(=O)O)(CO3)C4)nc12` [Compound 444], the DSF entry (Table B) is on record as “***** (>2.5° C.=*****)”.

On to `Cc1cc(N2CC[C@](C)(c3ccccc3)C2)cn2nc(C34CC(C(=O)N5CC6C(C5)C6C(=O)O)(CO3)C4)nc12` (stereo partly shown) [Compound 445], for which the DSF result (Table B) is recorded as “***** (>2.5° C.=*****)”.

In the case of `Cc1cc(N2CC[C@](C)(c3ccccc3)C2)cn2nc(C34CC(C(=O)NC5CCOC5)(CO3)C4)nc12` (stereo partly shown) [Compound 446], the DSF entry (Table B) is “***** (>2.5° C.=*****)”.

For the compound `Cc1ncn(CC23COC(c4nc5c(C)cc(N6CC[C@](C)(c7ccccc7)C6)cn5n4)(C2)C3)n1` [Compound 447], the DSF result (Table B) is “***** (>2.5° C.=*****)”.

`Cc1nc(CNC(=O)C23COC(c4nc5c(C)cc(N6CC[C@](C)(c7ccccc7)C6)cn5n4)(C2)C3)n[nH]1` [Compound 448]: the DSF result (Table B) is “***** (>2.5° C.=*****)”.

As to `Cc1cc(N2CC[C@](C)(c3ccccc3)C2)cn2nc(C34CC(Cn5ncnc5C)(CO3)C4)nc12` [Compound 449], the DSF result (Table B) is listed as “***** (>2.5° C.=*****)”.

`Cc1cnn(CC23COC(c4nc5c(C)cc(N6CC[C@](C)(c7ccccc7)C6)cn5n4)(C2)C3)n1` [Compound 450]: the DSF result (Table B) was “***** (>2.5° C.=*****)”.

Take `Cc1cc(N2CC[C@](C)(c3ccccc3)C2)cn2nc(C34CC(Cn5nncc5C)(CO3)C4)nc12` [Compound 451]: under “Table B”, the DSF result is on record as “***** (>2.5° C.=*****)”.

Regarding `Cc1cc(NC(=O)C23COC(c4nc5c(C)cc(N6CC[C@](C)(c7ccccc7)C6)cn5n4)(C2)C3)cc(C(=O)O)n1` [Compound 452], where the note is “Table B”, the DSF entry is reported as “***** (>2.5° C.=*****)”.

Turning to `Cc1cc(N2CC[C@](C)(c3ccccc3)C2)cn2nc(C34CC(C(=O)NCc5ccnc(C(=O)O)c5)(CO3)C4)nc12` [Compound 453], the DSF result (Table B) is “***** (>2.5° C.=*****)”.

Take `Cc1cc(N2CC[C@](C)(c3ccccc3)C2)cn2nc(C34CC(NC(=O)Nc5cccc(C(=O)O)n5)(CO3)C4)nc12` [Compound 454]: where the note is “Table B”, the DSF entry is listed as “***** (>2.5° C.=*****)”.
